Drawing on patent publication US20130296311A1, “INHIBITORS OF HCV NS5A” (PRESIDIO PHARMACEUTICALS, INC., priority 2010, published 2013), this text covers EC50 for 29 compounds.

The structures appear in SMILES notation.

The test system of one test is HCV 1b_Huh-Luc/Neo-ET cell line persistently expressing a bicistronic genotype 1b replicon in Huh 7 cells. Briefly: HCV replicon assay (luciferase readout, 72 h). The format is cell-based, HCV genotype 1b. To be noted: Hepatitis C virus, Huh-7, 72 h, read-out: Inhibition of HCV. On the procedure:
Biological activity of the compounds of the invention was determined using an HCV replicon assay. The HCV 1b_Huh-Luc/Neo-ET cell line persistently expressing a bicistronic genotype 1b replicon in Huh 7 cells was obtained from ReBLikon GMBH. This cell line was used to test compound inhibition using luciferase enzyme activity readout as a measurement of compound inhibition of replicon levels.
On Day 1 (the day after plating), each compound is added in triplicate to the cells. Plates incubated for 72 h prior to running the luciferase assay. Enzyme activity was measured using a Bright-Glo Kit (cat. number E2620) manufactured by Promega Corporation. The following equation was used to generate a percent control value for each compound.
% Control=(Average Compound Value/Average Control)*100
The EC50 value was determined using GraphPad Prism and the following equation:
Y=Bottom+(Top-Bottom)/(1+10̂((LogIC50−X)*HillSlope))
EC50 values of compounds are determined several times in the replicon assay.
Example compounds of the disclosed invention are illustrated in Tables 1-16 attached as appendices. The tables show inhibitory activity of many of the example compounds with respect to HCV 1b. […] The tables further provide mass spectrometry results for the synthesized example compounds.
Take `COC(=O)N[C@@H](C(=O)N1CCC[C@H]1c1nc2ccc(C#Cc3ccc4nc([C@@H]5CCCN5C(=O)[C@H](NC(=O)OC)c5ccccc5)[nH]c4c3)cc2[nH]1)c1ccccc1` [Compound 851]: the EC50 is under 1 nM.

The same test, now with this note: Hepatitis C virus, Huh-7, 72 h, read-out: Inhibition of HCV genotype 1b.
With `CC(C)[C@@H](NC(=O)C1CC1)C(=O)N1CCC[C@H]1c1ncc(C#Cc2ccc(-c3cnc([C@@H]4CCCN4C(=O)[C@H](NC(=O)C4CC4)C(C)C)[nH]3)cc2)[nH]1` [Compound 107], the EC50 lay in the range of 1 to 9.9 nM. The same measure, in the same setting: then `COC(=O)N[C@@H](C(=O)N1CCC[C@H]1c1ncc(C#Cc2ccc(C#Cc3cnc([C@@H]4CCCN4C(=O)[C@@H](c4ccccc4)N(C)C)[nH]3)cc2)[nH]1)c1ccccc1` [Compound 314], with under 1 nM; and `COC(=O)N[C@@H](C(=O)N1CCC[C@H]1c1ncc(-c2ccc(C#Cc3ccc(-c4cnc([C@@H]5CCCN5C(=O)[C@@H](c5ccccc5)N(C)C)[nH]4)cc3)cc2)[nH]1)c1ccccc1` [Compound 174], with under 1 nM. With `O=C([C@H](O)c1ccccc1)N1CCC[C@H]1c1ncc(-c2ccc(C#Cc3ccc(-c4cnc([C@@H]5CCCN5C(=O)[C@H](O)c5ccccc5)[nH]4)cc3)cc2)[nH]1` [Compound 157], the EC50 is under 1 nM. For `COC(=O)N[C@@H](C(=O)N1CCC[C@H]1c1ncc(-c2ccc(C#Cc3ccc(-c4cnc([C@@H]5CCCN5C(=O)[C@@H](c5ccccc5)N5CCOCC5)[nH]4)cc3)cc2)[nH]1)c1ccccc1` [Compound 185], the EC50 was under 1 nM. On to `CC(C)[C@@H](NC(=O)C1CC1)C(=O)N1CCC[C@H]1C(=O)Nc1ccc(C#Cc2cnc([C@@H]3CCCN3C(=O)[C@H](NC(=O)C3CC3)C(C)C)[nH]2)cc1` [Compound 116], for which the EC50 is 1 to 9.9 nM.

As to `CNC(=O)N[C@@H](C(=O)N1CCC[C@H]1c1ncc(-c2ccc(C#Cc3ccc(-c4cnc([C@@H]5CCCN5C(=O)[C@H](NC(=O)C5CC5)c5ccccc5)[nH]4)cc3)cc2)[nH]1)c1ccccc1` [Compound 997], the EC50 was under 1 nM. Same read-out and setting: then `COC(=O)N[C@@H](C(=O)N1CCC[C@H]1c1ncc(-c2ccc(C#Cc3ccc4nc([C@@H]5CCCN5C(=O)[C@H](NC(=O)OC)c5ccccc5)[nH]c4c3)cc2)[nH]1)c1ccccc1` [Compound 800], with under 1 nM; and `O=C(N[C@@H](C(=O)N1CCC[C@H]1C(=O)Nc1ccc(C#Cc2ccc(-c3cnc([C@@H]4CCCN4C(=O)[C@H](NC(=O)C4CC4)c4ccccc4)[nH]3)cc2)cc1)c1ccccc1)C1CC1` [Compound 166], with under 1 nM. Take `O=C(N[C@@H](C(=O)N1CCC[C@H]1c1ncc(-c2ccc(C#Cc3ccc(-c4cnc([C@@H]5CCCN5C(=O)[C@@H](c5ccccc5)N5CCCC5)[nH]4)cc3)cc2)[nH]1)c1ccccc1)C1CC1` [Compound 217]: the EC50 was under 1 nM.

Take `COC(=O)N[C@H](C(=O)N1CCC[C@H]1c1nc2ccc3cc(C#Cc4ccc(-c5cnc([C@@H]6CCCN6C(=O)[C@H](NC(=O)OC)c6ccccc6)[nH]5)cc4F)ccc3c2[nH]1)C(C)C` [Compound 1100]: the EC50 was under 1 nM. Regarding `COC(=O)N[C@@H](C(=O)N1CCC[C@H]1c1ncc(-c2ccc(C#Cc3ccc(-c4cnc([C@@H]5CCCN5C(=O)[C@H](NC(=O)N5CC[C@H](F)C5)c5ccccc5)[nH]4)cc3)cc2)[nH]1)c1ccccc1` [Compound 270], the EC50 is under 1 nM. Turning to `COC(=O)N[C@@H](CC(=O)O)C(=O)N1CCC[C@H]1c1ncc(-c2ccc(C#Cc3ccc4nc([C@@H]5CCCN5C(=O)[C@H](CC(=O)O)NC(=O)OC)[nH]c4c3)cc2)[nH]1` [Compound 1061], the EC50 lay within 10 to 999 nM. Consider `CC1(O)CCN(C(=O)N[C@@H](C(=O)N2CCC[C@H]2c2ncc(C#Cc3ccc(-c4ccc(-c5cnc([C@@H]6CCCN6C(=O)[C@H](NC(=O)N6CCC(C)(O)CC6)c6ccccc6)[nH]5)cc4)cc3)[nH]2)c2ccccc2)CC1` [Compound 870], for which the EC50 was under 1 nM. On the same count and under the same terms, to `CC(C)(C)OC(=O)N1CCC[C@H]1c1ncc(C#Cc2ccc(-c3cnc([C@@H]4CCCN4C(=O)OC(C)(C)C)[nH]3)cc2)[nH]1` [Compound 101] belongs 10 to 999 nM; to `COC(=O)N[C@@H](C(=O)N1CCC[C@H]1c1ncc(-c2ccc(C#Cc3ccc(-c4cnc([C@@H]5CCCN5C(=O)[C@H](NC(=O)C5CC5)c5ccccc5)[nH]4)cc3)cc2)[nH]1)c1ccccc1` [Compound 218], under 1 nM. On the same count and under the same terms, to `CCOC(=O)N[C@@H](C(=O)N1CCC[C@H]1c1ncc(-c2ccc(C#Cc3ccc(-c4cnc([C@@H]5CCCN5C(=O)[C@H](NC(=O)OCC)c5ccccc5)[nH]4)cc3)cc2)[nH]1)c1ccccc1` [Compound 244] belongs under 1 nM; to `COC(=O)N[C@@H](C(=O)N1CCC[C@H]1c1ncc(-c2ccc(C#Cc3ccc(C(=O)NC[C@@H]4CCCN4C(=O)[C@H](NC(=O)N4CCOCC4)c4ccccc4)cc3)cc2)[nH]1)c1ccccc1` [Compound 235], under 1 nM; to `C(#Cc1ccc2nc([C@@H]3CCCN3Cc3ccccc3)[nH]c2c1)c1ccc(-c2cnc([C@@H]3CCCN3Cc3ccccc3)[nH]2)cc1` [Compound 1052], over 1000 nM. On the same count and under the same terms, then `COC(=O)N[C@@H](C(=O)N1CCC[C@H]1c1ncc(C#Cc2ccc(-c3cnc([C@@H]4CCCN4C(=O)[C@H](NC(=O)OC)c4ccccc4)[nH]3)cc2)[nH]1)c1ccccc1` [Compound 110], with under 1 nM.

The same test, now with this note: Hepatitis C virus, Huh-7, read-out: Inhibition of HCV genotype 1b.
Consider `COC[C@H](NC(=O)OC)C(=O)N1CCC[C@H]1c1ncc(-c2ccc(C#Cc3ccc4nc([C@@H]5CCCN5C(=O)[C@@H](NC(=O)OC)C(C)C)[nH]c4c3)cc2)[nH]1` [Compound 1236], for which the EC50 is under 1 nM.

Consider `COC(=O)N[C@H](C(=O)N1CCN(C(=O)OC)C[C@H]1c1ncc(-c2ccc(C#Cc3ccc(-c4cnc([C@@H]5CCCN5C(=O)[C@H](NC(=O)OC)c5ccccc5)[nH]4)cc3)cc2)[nH]1)C(C)C` [Compound 1206], for which the EC50 is under 1 nM. For `CC[C@H](C)[C@H](NC(=O)OC)C(=O)N1CCC[C@H]1c1ncc(-c2ccc(C#Cc3ccc4nc([C@@H]5CCCN5C(=O)[C@@H](NC(=O)OC)[C@@H](C)CC)[nH]c4n3)cc2)[nH]1` [Compound 1251], the EC50 was under 1 nM. `C=CC[C@H](NC(=O)OC)C(=O)N1CCC[C@H]1c1nc2ccc(C#Cc3ccc4c(ccc5nc([C@@H]6CCCN6C(=O)[C@@H](NC(=O)OC)C(C)C)[nH]c54)c3)cc2[nH]1` [Compound 1277]: the EC50 is under 1 nM. As to `COC(=O)N[C@H](C(=O)N1CCC[C@H]1c1ncc(-c2ccc(C#Cc3ccc(-c4cnc([C@@H]5CCCN5C(=O)[C@H](NC(=O)OC)c5ccccc5OC)[nH]4)cc3)cc2)[nH]1)[C@@H](C)OC` [Compound 1211], the EC50 was under 1 nM. Still for that read-out and setting: to `CCN(CC)C(=O)c1cc(-c2cnc([C@@H]3CCCN3C(=O)[C@@H](NC(=O)OC)C(C)C)[nH]2)ccc1C#Cc1ccc(-c2cnc([C@@H]3CCCN3C(=O)[C@@H](NC(=O)OC)C(C)C)[nH]2)cc1` [Compound 1209] belongs under 1 nM.

Regarding `COC(=O)N[C@H](C(=O)N1CCC[C@H]1c1ncc(-c2ccc(C#Cc3ccc(-c4cnc([C@@H]5CCCN5C(=O)[C@H](NC(=O)OC)c5ccsc5)[nH]4)cc3)cc2)[nH]1)[C@@H](C)OC` [Compound 1212], the EC50 is under 1 nM.

Take `COC(=O)N[C@H](C(=O)N1CCC[C@H]1c1ncc(-c2ccc(C#Cc3ccc(-c4cnc([C@@H]5CCCN5C(=O)[C@@H](NC(=O)OC)C5CCOCC5)[nH]4)cc3)cc2)[nH]1)C1CCCC1` [Compound 1221]: the EC50 was under 1 nM.
